# Target: Multidrug resistance-associated protein 1 (Homo sapiens, UniProt P33527)
# Assay: Inhibitory concentration against multidrug resistance associated protein 1
# Multidrug resistance-associated protein 1, sequence (P33527 whole entry): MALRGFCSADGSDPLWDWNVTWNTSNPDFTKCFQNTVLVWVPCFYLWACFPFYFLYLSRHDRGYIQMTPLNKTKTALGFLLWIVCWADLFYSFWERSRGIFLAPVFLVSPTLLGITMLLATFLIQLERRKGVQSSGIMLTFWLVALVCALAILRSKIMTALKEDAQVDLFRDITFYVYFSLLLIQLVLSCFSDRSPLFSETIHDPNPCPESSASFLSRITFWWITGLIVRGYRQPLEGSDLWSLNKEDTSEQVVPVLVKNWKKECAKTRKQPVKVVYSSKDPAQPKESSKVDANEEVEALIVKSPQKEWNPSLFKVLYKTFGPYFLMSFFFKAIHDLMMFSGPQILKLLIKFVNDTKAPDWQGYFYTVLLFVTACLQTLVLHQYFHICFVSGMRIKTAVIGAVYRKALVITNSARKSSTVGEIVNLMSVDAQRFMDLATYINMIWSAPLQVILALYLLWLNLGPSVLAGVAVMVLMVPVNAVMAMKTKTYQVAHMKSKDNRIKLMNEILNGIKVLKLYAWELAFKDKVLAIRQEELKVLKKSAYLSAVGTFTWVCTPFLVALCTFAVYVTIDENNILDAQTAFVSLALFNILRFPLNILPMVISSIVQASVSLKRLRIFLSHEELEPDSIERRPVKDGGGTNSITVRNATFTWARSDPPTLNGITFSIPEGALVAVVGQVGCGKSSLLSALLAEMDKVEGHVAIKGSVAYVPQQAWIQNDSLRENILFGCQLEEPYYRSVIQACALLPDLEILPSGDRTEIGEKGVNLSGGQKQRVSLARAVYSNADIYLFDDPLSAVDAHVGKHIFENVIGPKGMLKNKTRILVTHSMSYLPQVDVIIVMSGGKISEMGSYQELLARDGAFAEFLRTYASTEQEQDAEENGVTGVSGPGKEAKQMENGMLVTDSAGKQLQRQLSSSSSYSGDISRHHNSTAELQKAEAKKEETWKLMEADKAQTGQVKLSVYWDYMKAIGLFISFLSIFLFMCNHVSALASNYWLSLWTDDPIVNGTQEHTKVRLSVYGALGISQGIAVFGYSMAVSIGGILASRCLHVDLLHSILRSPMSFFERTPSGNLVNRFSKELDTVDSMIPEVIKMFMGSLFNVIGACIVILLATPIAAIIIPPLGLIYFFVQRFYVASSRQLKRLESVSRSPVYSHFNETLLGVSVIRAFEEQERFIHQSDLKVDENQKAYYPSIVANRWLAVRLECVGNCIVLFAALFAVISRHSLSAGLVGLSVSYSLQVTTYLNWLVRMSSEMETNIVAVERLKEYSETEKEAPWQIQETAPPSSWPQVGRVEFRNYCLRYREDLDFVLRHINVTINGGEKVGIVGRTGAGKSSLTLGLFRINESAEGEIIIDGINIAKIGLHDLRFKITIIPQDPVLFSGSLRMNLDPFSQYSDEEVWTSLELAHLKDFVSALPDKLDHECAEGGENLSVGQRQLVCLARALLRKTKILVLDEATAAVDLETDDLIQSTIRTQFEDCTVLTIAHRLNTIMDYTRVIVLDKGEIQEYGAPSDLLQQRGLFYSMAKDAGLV
row,IC50 [nM],SMILES
1,≥ 250,N#Cc1c2n(c3c(N4CCN(CCc5ccc([N+](=O)[O-])cc5)CC4)ncnc13)CCCC2
2,≥ 250,CC(=O)Nc1ccc(-c2nc(N3CCN(CCc4ccccc4)CC3)c3c(n2)c(C#N)c2n3CCCC2)cc1
3,≥ 250,N#Cc1c2n(c3c(NCCN4CCc5ccccc5C4)ncnc13)CCCC2
4,< 250,N#Cc1c2n(c3c(N4CCN(CCc5ccc(F)c(F)c5)CC4)ncnc13)CCCC2
5,< 250,NC(=O)c1c2n(c3c(N4CCN(CCc5ccc(F)c(F)c5)CC4)ncnc13)CCCC2
6,≥ 250,c1ccc(CCN2CCN(c3ncnc4c(-c5ncccn5)c5n(c34)CCCC5)CC2)cc1
7,< 250,CCOC(=O)Cn1c2cccc(C(N)=O)c2c2ncnc(N3CCN(CCc4ccc(F)c(F)c4)CC3)c21
8,< 250,COc1cccc(CNC(=O)c2c3n(c4c(N5CCN(CCc6ccc(F)c(F)c6)CC5)ncnc24)CCCC3)c1OC
9,≥ 250,N#Cc1c2n(c3c(N4CCN(CCc5cccc([N+](=O)[O-])c5)CC4)ncnc13)CCCC2
10,≥ 250,N#Cc1c2n(c3c(N4CCN(CCCc5ccccc5)CC4)ncnc13)CCCC2
11,≥ 250,N#Cc1c2n(c3c(NS(=O)(=O)Cc4ccccc4)ncnc13)CCCC2
12,≥ 250,Cc1ccccc1-c1nc(N2CCN(CCc3ccc(F)c(F)c3)CC2)c2c(n1)c(C#N)c1n2CCCC1
13,≥ 250,Cc1nc(-c2c3n(c4c(N5CCN(CCc6ccccc6)CC5)ncnc24)CCCC3)sc1C
14,≥ 250,CCC(=O)c1c2n(c3c(N4CCN(CCc5ccccc5)CC4)ncnc13)CCCC2
15,≥ 250,N#Cc1c2n(c3c(N4CCN(CCc5ccccc5[N+](=O)[O-])CC4)ncnc13)CCCC2
16,≥ 250,COC(=O)c1c2n(c3c(N4CCN(CCc5ccccc5)CC4)ncnc13)CCCC2
17,< 250,Cc1cnc2c(c1C(N)=O)c1ncnc(N3CCN(CCc4ccc(F)c(F)c4)CC3)c1n2C

row,IC50 [nM],SMILES
1,≥ 250,COc1ccc(CCN2CCN(c3ncnc4c(C#N)c5n(c34)CCCC5)CC2)cc1
2,< 250,O=C(NCc1ccccn1)c1c2n(c3c(N4CCN(CCc5ccc(F)c(F)c5)CC4)ncnc13)CCCC2
3,≥ 250,COc1cccc(CCN2CCN(c3ncnc4c(C#N)c5n(c34)CCCC5)CC2)c1
4,≥ 250,N#Cc1c2n(c3c(N4CCN(CC(=O)c5ccccc5)CC4)ncnc13)CCCC2
5,≥ 250,N#Cc1c2n(c3c(N4CCN(CCc5ccc(Cl)cc5)CC4)ncnc13)CCCC2
6,≥ 250,Cc1cnc2c(c1C#N)c1ncnc(N3CCN(CCc4ccc(F)c(F)c4)CC3)c1n2C
7,≥ 250,Cc1nc(-c2c3n(c4c(N5CCN(CCc6ccccc6)CC5)ncnc24)CCCC3)no1
8,≥ 250,CN(CCc1ccccc1)c1ncnc2c(C#N)c3n(c12)CCCC3
9,< 250,Cc1c([N+](=O)[O-])nc2c(c1C(N)=O)c1ncnc(N3CCN(CCc4ccc(F)c(F)c4)CC3)c1n2C
10,< 250,N#Cc1c2n(c3c(N4CCN(CCc5ccc(F)c(F)c5)CC4)nc(-c4cccnc4)nc13)CCCC2
11,≥ 250,N#Cc1c2n(c3c(N4CCN(CCc5ccccc5)CC4)nc(-c4ccccc4)nc13)CCCC2
12,≥ 250,N#Cc1c2n(c3c(N4CCN(CCc5ccccc5Cl)CC4)ncnc13)CCCC2
13,≥ 250,N#Cc1c2n(c3c(N4CCN(S(=O)(=O)Cc5ccccc5)CC4)ncnc13)CCCC2
14,< 250,N#Cc1c2n(c3c(N4CCN(CCc5ccc(F)c(F)c5)CC4)nc(-c4ccncc4)nc13)CCCC2
15,≥ 250,N#Cc1c2n(c3c(N4CCN(CCc5cccc(Cl)c5)CC4)ncnc13)CCCC2
16,≥ 250,N#Cc1c2n(c3c(N4CCN(CCc5ccccc5)CC4)nc(I)nc13)CCCC2

row,SMILES,IC50 [nM]
1,N#Cc1c2n(c3c(N4CCN(CCc5c[nH]c6ccccc56)CC4)ncnc13)CCCC2,≥ 250
2,N#Cc1c2n(c3c(NCCc4ccccc4)ncnc13)CCCC2,≥ 250
3,O=C(c1ccccc1)c1c2n(c3c(N4CCN(CCc5ccccc5)CC4)ncnc13)CCCC2,≥ 250
